Results on 22 molecules are retold here after patent publication US20250332173A1, “COMPOUNDS AND METHODS FOR MODULATING NUCLEIC ACID SPLICING” (REMIX THERAPEUTICS INC., priority 2021, published 2025).

Holding throughout (format): cell-based, human
Test [1] has as its system Target C. Nature of the test: RT-qPCR splicing assay panel, Target C canonical junction (CJ) mRNA. The conditions noted are these: Homo sapiens; Table 5 panel; canonical junction qPCR; compound concentration having 50% response in CJ decrease; read-out: Target C IC50 (decrease in CJ mRNA levels). Put shortly: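 Cells are plated (A673 allowed 24 h to adhere), dosed with an 11-point 3-fold series topping at 10 uM final, and incubated 24 h at 37 °C. Lysis is followed by cDNA synthesis and qPCR of the CJ transcript, normalized to a housekeeping gene.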

The test system of test [2] is Target C. As to the kind of experiment: HiBiT protein abundance assay, Target C (Promega Nano-Glo HiBiT Lytic Detection System, knock-in K562 cell line). As to conditions: Homo sapiens, K562, 24 h, HiBiT K562 cell line, 24 hours, top dose 10 μM; read-out: Effect on protein abundance, Target C (IC50 category). Put shortly:
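Protein abundance was read by Nano-Glo HiBiT lytic luminescence after 24 h compound exposure (10-point, threefold series from 10 μM final) of HiBiT knock-in K562 cells. Parental K562 served as baseline; the 50%-abundance concentration was interpolated from a four-parameter logistic fit.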

Another test concerns MYB mRNA. As to the kind of experiment: RT-qPCR splicing assay, MYB canonical junction (CJ) and alternative junction (AJ) mRNA. The conditions noted are these: Homo sapiens; for AC50: increase in MYB alternative junction (AJ) mRNA, read-out: MYB AJ AC50. Put shortly:
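Splicing switches were read by TaqMan RT-qPCR on lysates, quantifying exon-exon junctions of the canonical and alternative-exon isoforms. Lysates came from K562 (GAPDH/GUSB reference) or A673 (PPIA reference) cells exposed 24 h to compound in 11 threefold steps from 10 uM, with DMSO ≤0.25%.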

[3] abbreviates: Table 5 panel, canonical junction qPCR, compound concentration having 50% response in CJ decrease, read-out: MYB IC50 (decrease in CJ mRNA levels).
The mark [4] stands for this setting: decrease in MYB canonical junction (CJ) mRNA, RT-qPCR, read-out: MYB CJ IC50.

Structures can show the parent of a compound that is named as a salt. Where two headings read alike, the source gives them in different places.

With `Cc1cn2nc(-c3ccc4c(=O)n(C5CCNCC5)ccc4c3)cc(C(=O)N(C)C)c2n1` [Compound 524, N, N, 2-trimethyl-6-[1-oxo-2-(4-piperidyl)-6-isoquinolyl]imidazo[1,2-b]pyridazine-8-carboxamide], the IC50 in the test on Target C [1], in the test with Target C [2], with MYB mRNA (setting [3]) and in the test on MYB mRNA (setting [4]) was > 10000 nM each time. Moreover, the half-maximal activity concentration (AC50) with MYB mRNA (RT-qPCR) was > 10000 nM.

Take `Cc1cn2nc(-c3ccc4c(=O)n(C5CCNCC5)ccc4c3)cc(CO)c2n1` [Compound 525, 6-[8-(hydroxymethyl)-2-methyl-imidazo[1,2-b]pyridazin-6-yl]-2-(4-piperidyl) isoquinolin-1-one]: the IC50 is 100 to 1000 nM in the test with Target C [1], 100 to 1000 nM in the test on Target C [2], 100 to 1000 nM with MYB mRNA (setting [3]) and < 100 nM with MYB mRNA (setting [4]). Besides, the concentration at half-maximal activity (AC50) with MYB mRNA (RT-qPCR) lay within 100 to 1000 nM.

With `Cc1cn2nc(-c3ccc4c(=O)n(C5CCNCC5)ccc4c3)cc(OCc3ccccc3)c2n1` [Compound 526, 6-(8-benzyloxy-2-methyl-imidazo[1,2-b]pyridazin-6-yl)-2-(4-piperidyl) isoquinolin-1-one], the concentration for half-maximal inhibition (IC50) in the test with Target C [1] fell in the range of 1000 to 10000 nM; with Target C [2] it was 100 to 1000 nM; with MYB mRNA (setting [3]) it was 100 to 1000 nM; in the test on MYB mRNA (setting [4]), 100 to 1000 nM. In addition, in the test with MYB mRNA (RT-qPCR), the AC50 was 100 to 1000 nM.

In the case of `COC(=O)Cc1cc(-c2ccc3c(=O)n(C4CCNCC4)ccc3c2)nn2cc(C)nc12` [Compound 527], the IC50 lay in the range of 1000 to 10000 nM in the test with Target C [1], 100 to 1000 nM with Target C [2], 100 to 1000 nM with MYB mRNA (setting [3]) and 100 to 1000 nM in the test with MYB mRNA (setting [4]). In addition, in the test on MYB mRNA (RT-qPCR), the AC50 lay in the range of 100 to 1000 nM.

Take `Cc1cn2nc(-c3ccc4c(=O)n(C5CCNCC5)ccc4c3)cc(CC(N)=O)c2n1` [Compound 528, 2-(2-methyl-6-(1-oxo-2-(piperidin-4-yl)-1,2-dihydroisoquinolin-6-yl)imidazo[1,2-b]pyridazin-8-yl) acetamide]: the IC50 lay in the range of 1000 to 10000 nM with Target C [1], 100 to 1000 nM in the test with Target C [2], 1000 to 10000 nM in the test with MYB mRNA (setting [3]) and 1000 to 10000 nM with MYB mRNA (setting [4]). Besides, in the test on MYB mRNA (RT-qPCR), the AC50 fell in the range of 1000 to 10000 nM.

For the molecule `CCOC(=O)c1cc(-c2ccc3c(=O)n(C4CCNCC4)ccc3c2)nn2cc(C)nc12` [Compound 529, ethyl 2-methyl-6-[1-oxo-2-(4-piperidyl)-6-isoquinolyl]imidazo[1,2-b]pyridazine-8-carboxylate], the IC50 in the test on Target C [1] was in the range of 1000 to 10000 nM; with Target C [2], 100 to 1000 nM; in the test with MYB mRNA (setting [3]) it was 100 to 1000 nM; in the test on MYB mRNA (setting [4]) it was 100 to 1000 nM. In addition, the AC50 in the test on MYB mRNA (RT-qPCR) was 100 to 1000 nM.

For `Cn1cc2c(=O)n(-c3ccc4c(=O)n(C5CCNCC5)ccc4c3)ccc2n1` [Compound 530, 6-{2-methyl-4-oxopyrazolo[4,3-c]pyridin-5-yl}-2-(piperidin-4-yl)isoquinolin-1-one], the IC50 in the test with Target C [1], in the test on Target C [2], in the test on MYB mRNA (setting [3]) and in the test on MYB mRNA (setting [4]) was > 10000 nM in each case. Besides, the AC50 with MYB mRNA (RT-qPCR) is > 10000 nM.

For the molecule `Cc1cn2nc(-c3ccc4c(=O)n(C5CCNCC5)ccc4c3)cc(CC(=O)O)c2n1` [Compound 531, 2-[2-methyl-6-[1-oxo-2-(4-piperidyl)-6-isoquinolyl]imidazo[1,2-b]pyridazin-8-yl]acetic acid], the half-maximal inhibitory concentration (IC50) in the test on Target C [1], with Target C [2], in the test with MYB mRNA (setting [3]) and in the test on MYB mRNA (setting [4]) was 100 to 1000 nM each time. The AC50 in the test with MYB mRNA (RT-qPCR) lay within 100 to 1000 nM.

`Cc1cn2nc(-c3ccc4c(=O)n(C5CCNCC5)ccc4c3)cc(CCO)c2n1` [Compound 533, 6-[8-(2-hydroxyethyl)-2-methyl-imidazo[1,2-b]pyridazin-6-yl]-2-(4-piperidyl)isoquinolin-1-one]: the 50% inhibitory concentration (IC50) lay within 1000 to 10000 nM in the test on Target C [1], 100 to 1000 nM with Target C [2], 100 to 1000 nM with MYB mRNA (setting [3]) and 100 to 1000 nM with MYB mRNA (setting [4]). Also, in the test with MYB mRNA (RT-qPCR), the AC50 is 100 to 1000 nM.

Consider `CNC(=O)Cc1cc(-c2ccc3c(=O)n(C4CCNCC4)ccc3c2)nn2cc(C)nc12` [Compound 534, N-methyl-2-[2-methyl-6-[1-oxo-2-(4-piperidyl)-6-isoquinolyl]imidazo[1,2-b]pyridazin-8-yl]acetamide], for which the IC50 in the test with Target C [1], with Target C [2], with MYB mRNA (setting [3]) and in the test with MYB mRNA (setting [4]) was 1000 to 10000 nM throughout. For the same molecule, the AC50 in the test on MYB mRNA (RT-qPCR) was 1000 to 10000 nM.

For the molecule `Cc1cn2nc(-c3ccc4c(=O)n(C5CCNCC5)ccc4c3)cc(Cc3nnc[nH]3)c2n1` [Compound 535, 6-[2-methyl-8-(4H-1,2,4-triazol-3-ylmethyl)imidazo[1,2-b]pyridazin-6-yl]-2-(4-piperidyl) isoquinolin-1-one], the IC50 in the test with Target C [1] is > 10000 nM; in the test with Target C [2], 1000 to 10000 nM; in the test on MYB mRNA (setting [3]) it was 1000 to 10000 nM; in the test on MYB mRNA (setting [4]), 1000 to 10000 nM. Also, in the test on MYB mRNA (RT-qPCR), the AC50 is 1000 to 10000 nM.

As for `Cc1cn2nc(-c3ccc4c(=O)n(C5CCNCC5)ccc4c3)cc(Cc3nnn[nH]3)c2n1` [Compound 536, 6-[2-methyl-8-(1H-tetrazol-5-ylmethyl)imidazo[1,2-b]pyridazin-6-yl]-2-(4-piperidyl) isoquinolin-1-one], the IC50 in the test on Target C [1], in the test with Target C [2], with MYB mRNA (setting [3]) and in the test with MYB mRNA (setting [4]) was > 10000 nM in each case. Moreover, the AC50 with MYB mRNA (RT-qPCR) is > 10000 nM.

For the molecule `CCN1CCC(n2ncc3cc(-c4cc(C)c5nc(C)cn5n4)cc(F)c3c2=O)CC1` [Compound 537], the IC50 in the test on Target C [1], with Target C [2], in the test with MYB mRNA (setting [3]) and with MYB mRNA (setting [4]) was 100 to 1000 nM throughout. In addition, the AC50 in the test on MYB mRNA (RT-qPCR) lay within 100 to 1000 nM.

Take `Cc1cn2nc(-c3cc(F)c4c(=O)n(C5CCN(CCF)CC5)ncc4c3)cc(C)c2n1` [Compound 538]: the IC50 with Target C [1], in the test with Target C [2], in the test on MYB mRNA (setting [3]) and in the test with MYB mRNA (setting [4]) was 100 to 1000 nM throughout. The AC50 with MYB mRNA (RT-qPCR) lay in the range of 100 to 1000 nM.

On to `Cc1cn2nc(-c3cc(F)c4c(=O)n(C5CCN(C)CC5)ncc4c3)cc(C)c2n1` [Compound 539], for which the IC50 is 100 to 1000 nM in the test on Target C [1], < 100 nM with Target C [2], < 100 nM with MYB mRNA (setting [3]) and < 100 nM in the test with MYB mRNA (setting [4]). The AC50 in the test with MYB mRNA (RT-qPCR) was < 100 nM.

Regarding `Cc1cn2nc(-c3cc(F)c4c(=O)n(C5CCNCC5)ncc4c3)cc(C)c2n1` [Compound 540], the IC50 in the test with Target C [1], with Target C [2], with MYB mRNA (setting [3]) and in the test with MYB mRNA (setting [4]) was < 100 nM each time. Moreover, the AC50 with MYB mRNA (RT-qPCR) is < 100 nM.

In the case of `Cc1cn2nc(-c3cc(O)c4c(=O)n(C5CCNCC5)ncc4c3)cc(C)c2n1` [Compound 541], the IC50 in the test with Target C [1], with Target C [2], in the test with MYB mRNA (setting [3]) and in the test on MYB mRNA (setting [4]) was < 100 nM in each case. The AC50 in the test with MYB mRNA (RT-qPCR) was < 100 nM.

On to `CCN1CCC(n2ncc3cc(-c4cc(C)c5nc(C)cn5n4)cc(O)c3c2=O)CC1` [Compound 542], for which the IC50 was 100 to 1000 nM in the test with Target C [1], < 100 nM with Target C [2], < 100 nM in the test on MYB mRNA (setting [3]) and < 100 nM with MYB mRNA (setting [4]). Also, the AC50 with MYB mRNA (RT-qPCR) is < 100 nM.

Turning to `Cc1cn2nc(-c3cc(O)c4c(=O)n(C5CCN(C)CC5)ncc4c3)cc(C)c2n1` [Compound 543], the IC50 in the test with Target C [1], in the test with Target C [2], with MYB mRNA (setting [3]) and in the test on MYB mRNA (setting [4]) was 100 to 1000 nM each time. In addition, the AC50 in the test on MYB mRNA (RT-qPCR) was in the range of 100 to 1000 nM.

`Cc1cn2nc(-c3ccc4c(=O)n(C5CCNCC5)ccc4c3)cc(Oc3ccccc3F)c2n1` [Compound 544, 6-[8-(2-fluorophenoxy)-2-methyl-imidazo[1,2-b]pyridazin-6-yl]-2-(4-piperidyl) isoquinolin-1-one; hydrochloride]: the IC50 in the test with Target C [1] was < 100 nM; in the test with Target C [2] it was < 100 nM; in the test with MYB mRNA (setting [3]) it was 100 to 1000 nM; with MYB mRNA (setting [4]) it was < 100 nM. Moreover, the AC50 in the test on MYB mRNA (RT-qPCR) fell in the range of 100 to 1000 nM.

With `Cc1cn2nc(-c3ccc4c(=O)n(C5CCNCC5)ccc4c3)cc(Oc3cccc(F)c3)c2n1` [Compound 545, 6-[8-(3-fluorophenoxy)-2-methyl-imidazo[1,2-b]pyridazin-6-yl]-2-(4-piperidyl)isoquinolin-1-one; hydrochloride], the IC50 in the test with Target C [1], in the test with Target C [2], in the test on MYB mRNA (setting [3]) and with MYB mRNA (setting [4]) was < 100 nM each time. The AC50 with MYB mRNA (RT-qPCR) is < 100 nM.

On to `Cc1cn2nc(-c3ccc4c(=O)n(C5CCNCC5)ccc4c3)cc(Oc3ccc(F)cc3)c2n1` [Compound 546, 6-[8-(4-fluorophenoxy)-2-methyl-imidazo[1,2-b]pyridazin-6-yl]-2-(4-piperidyl) isoquinolin-1-one; hydrochloride], for which the concentration for half-maximal inhibition (IC50) with Target C [1], in the test with Target C [2], with MYB mRNA (setting [3]) and with MYB mRNA (setting [4]) was < 100 nM each time. Moreover, the AC50 in the test with MYB mRNA (RT-qPCR) is < 100 nM.
